Data reported in article PMC9852833, “Functional evaluation of cyclosporine metabolism by CYP3A4 variants and potential drug interactions” (Frontiers in Pharmacology, 2023).
Values belong to the compound of their own block, whether it stands above or below them.

Legend:
[1] = system: metabolism of CsA in rat liver microsomes (RLMs); assay: Inhibition of CsA metabolism in rat liver microsomes (RLMs); settings: for Inhibitory effect on the metabolism of CsA (in words): RLMs, comparison of five antihypertension drugs (Figure 2C); for Inhibitory rate on the metabolism of CsA: screen of 132 drugs, RLMs […], Tris-HCl, NADPH 1 mM, AM1 by UPLC-MS/MS
Description: (§1) The concentrations of CsA, its main metabolite AM1, and diazepam (IS) were detected by UPLC–MS/MS equipped with a triple quadrupole and electrospray ionization (ESI) source. […] Briefly, the analytes were separated on a UPLC BEH C18 column (2.1 mm × 50 mm, 1.7 μm particle size). […] Solvent A (0.1% formic acid) and solvent B (acetonitrile) were applied as the mobile phase, with a gradient elution at a flow rate of 0.4 ml/min and an injection volume of 4 μl.
(§2) Reduced nicotinamide adenine dinucleotide phosphate (NADPH) (1 mmol/L) was added into the mixture after preincubation at 37°C for 5 min to initiate the reaction. The mixture was incubated for another 40 min, then cooled at −80°C to suspend the reaction. Then, 400 μl of acetonitrile and 20 μl of diazepam (200 ng/ml) were added to the frozen mixture. The mixtures were vortexed for 2 min and centrifuged at 13,000 rpm for 10 min. Finally, 4 μl of the mixture was injected for UPLC-MS/MS analysis.
(§3) A 200 μl system was incubated with either RLMs or HLMs (at a concentration of 0.15 mg/ml) containing drugs, CsA, RLMs or HLMs (all at a concentration of 0.15 mg/ml), Tris-HCl buffer, and 10 μl of NADPH (1 mM). […] The rest of the operation was the same as already described.

[2] = system: metabolism of CsA in human liver microsomes (HLMs); CYP3A4; settings: comparison of five antihypertension drugs (Figure 2D)
Description: as §1, §2, §3

[3] = Inhibition of CsA metabolism in rat liver microsomes (RLMs); settings: SD
Description: as §1, §2, §3

[4] = Pharmacokinetics of CsA and AM1 in rats with or without nimodipine or nisoldipine; format: in vivo, Sprague–Dawley rats; settings: male SD rats, plasma, UPLC-MS/MS, mean ± SD n = 6
Description: Sprague–Dawley male rats weighing 200–250 g were purchased from Shanghai Laboratory Animal Center (SLAC). After 2 weeks of laboratory adaptation, the rats were randomly divided into three groups with six rats in each group. […] All drugs were orally administered. […] The collected blood samples were centrifuged to obtain the plasma. Then, 150 μl of acetonitrile and 20 μl of diazepam (IS; 100 ng/ml) were added to 50 μl of plasma, mixed and vortexed for 2 min, centrifuged for 10 min, and 4 μl of the supernatant was used for UPLC-MS/MS injection analysis.
The pharmacokinetic parameters were evaluated by DAS 3.0.

[5] = metabolite after CsA 40 mg/kg oral + nimodipine 24 mg/kg oral
[6] = metabolite after CsA 40 mg/kg oral + nisoldipine 2 mg/kg oral
[7] = metabolite after CsA 40 mg/kg oral alone

Structure (SMILES): CCOC(=O)C1=C(C)NC(C)=C(C(=O)OC)C1c1cccc(Cl)c1Cl (stereo not shown) [felodipine]
Inhibitory effect on the metabolism of CsA (in words) [1]: almost completely blocked the metabolism of CsA

Structure (SMILES): N#CC1(c2ccc(NC(=O)c3cccnc3NCc3ccncc3)cc2)CCCC1 [apatinib, Apatinib]
Inhibitory rate on the metabolism of CsA [1]: greater than 80%

Structure (SMILES): OCCOc1ccc(/C(=C(/CCCl)c2ccccc2)c2ccccc2)cc1 [ospemifene]
Inhibitory rate on the metabolism of CsA [1]: greater than 80%

Structure (SMILES): COC(=O)C1=C(C)NC(C)=C(C(=O)OCC(C)C)C1c1ccccc1[N+](=O)[O-] (stereo not shown) [nisoldipine, Nisoldipine]
Inhibitory effect on the metabolism of CsA (in words) [2]: almost completely blocked the metabolism of CsA
IC50 [3]: 16.2 ± 0.78 µM
Inhibitory effect on the metabolism of CsA (in words) [1]: almost completely blocked the metabolism of CsA
Inhibitory rate on the metabolism of CsA [1]: greater than 80%

Structure (SMILES): COCCOC(=O)C1=C(C)NC(C)=C(C(=O)OC(C)C)C1c1cccc([N+](=O)[O-])c1 (stereo not shown) [nimodipine, Nimodipine]
Inhibitory effect on the metabolism of CsA (in words) [1]: almost completely blocked the metabolism of CsA

Structure (SMILES): CC[C@@H]1NC(=O)[C@H]([C@H](O)[C@H](C)C/C=C/CO)N(C)C(=O)[C@H](C(C)C)N(C)C(=O)[C@H](CC(C)C)N(C)C(=O)[C@H](CC(C)C)N(C)C(=O)[C@@H](C)NC(=O)[C@H](C)NC(=O)[C@H](CC(C)C)N(C)C(=O)[C@H](C(C)C)NC(=O)[C@H](CC(C)C)N(C)C(=O)CN(C)C1=O [AM1, CsA M-17]
AUC(0-t) of AM1 [4, 5]: 3,291.60 ± 1,213.46 μg/L·h
AUC(0-∞) of AM1 [4, 5]: 3,504.89 ± 1,223.40 μg/L·h
CLz/F of AM1 [4, 5]: 207 ± 60 mL/min/kg
Cmax of AM1 [4, 5]: 192.68 ± 69.42 ng/mL
Tmax of AM1 [4, 5]: 7.00 ± 2.68 h
Vz/F of AM1 [4, 5]: 198.16 ± 99.97 L/kg
t1/2z of AM1 [4, 5]: 10.83 ± 3.52 h
AUC(0-t) of AM1 [4, 6]: 1,548.46 ± 482.43 μg/L·h
AUC(0-∞) of AM1 [4, 6]: 2,128.73 ± 887.82 μg/L·h
CLz/F of AM1 [4, 6]: 354.3 ± 122 mL/min/kg
Cmax of AM1 [4, 6]: 110.32 ± 19.52 ng/mL
Tmax of AM1 [4, 6]: 6.17 ± 1.60 h
Vz/F of AM1 [4, 6]: 494.23 ± 201.15 L/kg
t1/2z of AM1 [4, 6]: 19.58 ± 13.45 h
AUC(0-t) of AM1 [4, 7]: 2,275.37 ± 620.96 μg/L·h
AUC(0-∞) of AM1 [4, 7]: 2,542.74 ± 779.21 μg/L·h
CLz/F of AM1 [4, 7]: 283.8 ± 88.5 mL/min/kg
Cmax of AM1 [4, 7]: 141.21 ± 30.64 ng/mL
Tmax of AM1 [4, 7]: 6.83 ± 1.33 h
Vz/F of AM1 [4, 7]: 264.78 ± 145.01 L/kg
t1/2z of AM1 [4, 7]: 12.10 ± 9.00 h

Further lines, results first:

Inhibitory rate on the metabolism of CsA [1]: greater than 80%
Structure (SMILES): C=CC[C@@H]1/C=C(\C)C[C@H](C)C[C@H](OC)[C@H]2O[C@@](O)(C(=O)C(=O)N3CCCC[C@H]3C(=O)O[C@H](/C(C)=C/[C@@H]3CC[C@@H](O)[C@H](OC)C3)[C@H](C)[C@@H](O)CC1=O)[C@H](C)C[C@@H]2OC [tacrolimus, Tacrolimus]

Inhibitory rate on the metabolism of CsA [1]: greater than 80%
Structure (SMILES): C[C@@H](c1nc(-c2ccc(C#N)cc2)cs1)[C@](O)(Cn1cncn1)c1cc(F)ccc1F [isavuconazole, Isavuconazole]

Inhibitory rate on the metabolism of CsA [1]: greater than 80%
Structure (SMILES): CO[C@H]1C[C@@H]2CC[C@@H](C)[C@@](O)(O2)C(=O)C(=O)N2CCCC[C@H]2C(=O)O[C@H]([C@H](C)C[C@@H]2CC[C@@H](OCCO)[C@H](OC)C2)CC(=O)[C@H](C)/C=C(\C)[C@@H](O)[C@@H](OC)C(=O)[C@H](C)C[C@H](C)/C=C/C=C/C=C/1C [everolimus, Everolimus]

Inhibitory rate on the metabolism of CsA [1]: greater than 80%
Structure (SMILES): C[C@@H](c1ncncc1F)[C@](O)(Cn1cncn1)c1ccc(F)cc1F [voriconazole, Voriconazole]

Inhibitory rate on the metabolism of CsA [1]: greater than 80%
Structure (SMILES): Cc1cccc(C)c1OCC(=O)N[C@@H](Cc1ccccc1)[C@@H](O)C[C@H](Cc1ccccc1)NC(=O)[C@H](C(C)C)N1CCCNC1=O [lopinavir, Lopinavir]
